Data published in US11007355B2 (TARIS Biomedical LLC, priority 2012, dated 2021).
Where “and” joins values, the source holds several entries; their conditions need not be identical. Identical values can stand only once. Entries after “also recorded” stand apart in the source; their conditions may differ. Like-named read-outs stand apart in the source and are kept apart here.

Assays:
[1] = Platinum content of blood, urine and terminal tissues by ICP-MS after bladder perfusion or IV bolus (Example 1); assay type: in vivo, rat
male Sprague Dawley rats [2] = experiment: Bladder tolerability in rats: clinical observations during perfusion and tissue observations at necropsy (Example 1); assay type: in vivo, rat
Method: For each drug, each test group included three male rats. The perfusate drug concentration was set to 0.3 mg/mL and the perfusion rate used was 300 μL/hour over the test periods.
Perfusion solutions were prepared by dissolving each drug substance into an appropriate volume of saline. The finals doses administered are summarized below.

[3] = Oxaliplatin tissue permeability: platinum in blood, urine and tissues after 72-hour bladder perfusion (Example 2)
Method: (§1) Blood, urine, and tissue samples were collected and analyzed for drug content.
(§2) The perfusate formulation concentration was 0.308 mg/mL. Dose (mg/kg) was calculated as (Dose administered (g) x formulation concentration (mg/mL))/Animal Wt. (kg). The drug solutions were dosed over a 72-hour period into the non-fasted animal's bladder by intra-urinary bladder cannula using an infusion pump.
(§3) Whole blood samples were taken via tailnick or jugular vein cannula at the following time points following the start of perfusion: 0, 4, 8, 24, and 48 hours. Urine was collected pre-dose and for 0-24, 24-48, and 48-72-hour periods post dose.
(§4) Following the 72-hour infusion period the animals were sacrificed, terminal blood samples were taken via the abdominal aorta, and bladder, prostate, ureter, and kidney tissues were collected, weighed, and visually inspected for evidence of tolerability/reaction from exposure to the drug.

male Sprague Dawley rats [4] = conditions: 72-hour bladder perfusion
Method: as §1, §2, §3, §4

[5] = Group 1: 24-hr bladder perfusion, 0.3 mg/mL
[6] = Group 2: 72-hr bladder perfusion, 0.3 mg/mL
[7] = Group 4: IV bolus with saline perfusion via cannula
[8] = 0.308 mg/mL, individual animals 47, 48, 49

N.N.[Cl][Pt][Cl] [cisplatin]
Bladder platinum concentrations, 72 hr perfusions compared to 24 hr perfusions ([1]; rat, in vivo): Significantly higher and more variable
Blood profile (platinum, whole blood) ([1]; rat, in vivo): rising blood levels
Clinical Observations of note during Perfusion (male Sprague Dawley rats [2]; rat, in vivo, iv): Normal
Tissue Observations at Necropsy (overall) (male Sprague Dawley rats [2]; rat, in vivo, iv): No observations

N.N.O=C([O-])C1(C(=O)[O-])CCC1.[Pt+2] [carboplatin]
Blood profile (platinum) ([1]; IV bolus, FIG. 8): significant peak systemic platinum exposure followed by a sharp decay
Amount in the IV bolus terminal phase as compared with cisplatin ([1]; IV bolus, blood): one quarter less
Therapeutic tissue platinum concentrations by intravesical perfusion ([1]; bladder perfusion 0.3 mg/mL): does not achieve therapeutic tissue platinum concentrations
Observed plasma levels (blood profile, platinum) ([1]; bladder perfusion groups, FIG. 8): near the limit of the assay detection (twice the limits of detection) to below the quantitation limit
Tissue levels (terminal platinum concentrations) compared with cisplatin ([1]; bladder perfusion, FIG. 9): consistently less than those observed following cisplatin bladder perfusion
Bladder tissue concentrations relative to IC50 ([1]; bladder perfusion, terminal bladder tissue): below the IC50 of carboplatin
Tissue Observations at Necropsy: bladder lumen erythemic discoloration (grade) (male Sprague Dawley rats [2]; [5]): Bladder lumen: slight to mild
Tissue Observations at Necropsy: erythemic discoloration, share of lumen (male Sprague Dawley rats [2]; [5]): 10-30 % of lumen
Tissue Observations at Necropsy: evidence of tissue edema/thickened bladder walls (male Sprague Dawley rats [2]; [5]): no
Clinical Observations of note during Perfusion (male Sprague Dawley rats [2]; Group 1: 24-hr perfusion via cannula to bladder dome, 0.3 mg/mL, 300 μL/hour, 3 male rats): Normal
Tissue Observations at Necropsy: bladder lumen erythemic discoloration (grade) (male Sprague Dawley rats [2]; [6]): Bladder lumen: slight to mild
Tissue Observations at Necropsy: erythemic discoloration, share of lumen (male Sprague Dawley rats [2]; [6]): 10-30 % of lumen
Tissue Observations at Necropsy: evidence of tissue edema/thickened bladder walls (male Sprague Dawley rats [2]; [6]): no
Clinical Observations of note during Perfusion (male Sprague Dawley rats [2]; Group 2: 72-hr perfusion via cannula to bladder dome, 0.3 mg/mL, 300 μL/hour, 3 male rats): Normal
Tissue Observations at Necropsy: bladder lumen erythemic discoloration (grade) (male Sprague Dawley rats [2]; [7]): Bladder lumen: slight generalized
Tissue Observations at Necropsy: erythemic discoloration, share of lumen (male Sprague Dawley rats [2]; [7]): erythemic discoloration, 5-10% of lumen
Clinical Observations of note during Perfusion (male Sprague Dawley rats [2]; Group 4: IV bolus with saline perfusion via cannula, 3 male rats): Red tinted urine
Appearance of animals during perfusion period (male Sprague Dawley rats [2]; all dosed animals (Groups 1, 2, 4)): all animals appeared normal
Bladder tolerability and tissue permeability criteria (overall) (male Sprague Dawley rats [2]; bladder perfusion, Example 1): meet only one or other of these criteria

O=C1[O][Pt]2([NH][C@@H]3CCCC[C@H]3[NH]2)[O]C1=O [oxaliplatin]
Blood and kidney platinum concentrations, in contrast to cisplatin ([3]; 72-hour bladder perfusion): Comparatively low
Bladder platinum concentrations compared to cisplatin and carboplatin ([3]; 72-hour bladder perfusion, FIGS. 12A-12B): significant platinum bladder concentrations
Platinum concentration in the kidney or prostate ([3]; 72-hour bladder perfusion, terminal tissues): No appreciable platinum concentration
Blood concentrations (blood profile) compared with cisplatin and carboplatin ([3]; 72 hour bladder perfusion, FIG. 10): fell between cisplatin and carboplatin
Appearance of animals throughout the study (male Sprague Dawley rats [4]; 0.308 mg/mL): All animals appeared normal
Observations at necropsy: erythemia (animal 48: erythemia and edema) on inside wall of bladder associated with the bladder cannula (male Sprague Dawley rats [4]; 0.308 mg/mL, individual animals 47, 48): bladder associated with the bladder cannula mild; also recorded: bladder associated with the bladder cannula moderate
Observations at necropsy: erythemia of bladder surface (grade) (male Sprague Dawley rats [4]; [8]): Slight erythemia; also recorded: Slight erythemic
Observations at necropsy: erythemia, share of surface (male Sprague Dawley rats [4]; [8]): 20 % of surface (2×) and < 5 % of surface
Bladder tolerability and tissue permeability criteria (overall) (male Sprague Dawley rats [4]; Example 2): both bladder tolerability and tissue permeability
